Data on 19 compounds can be found in PMC5748833, “Synthesis and Biological Evaluation of Novel Hybrid Molecules Containing Purine, Coumarin and Isoxazoline or Isoxazole Moieties” (The Open Medicinal Chemistry Journal, 2017).

The term melting point denotes the temperature of the solid-liquid transition. For orientation: IC50 means the midpoint of a concentration-inhibition curve.

Series [1] can be described thus: Inhibition of linoleic acid lipid peroxidation (AAPH). As to conditions: 100 μM compound, 37°C. The protocol: 2.2.2.3 Inhibition of linoleic acid lipid peroxidation
Production of conjugated diene hydroperoxide by oxidation of linoleic acid sodium salt in an aqueous solution was monitored at 234 nm. 2,2’-Azobis(2-amidinopropane) dihydrochloride (AAPH) was used as a free radical initiator. 10 μl of the 16 mM linoleic acid sodium salt solution was added to the UV cuvette containing 0.93 ml of 0.05 M phosphate buffer, pH 7.4 prethermostated at 37°C. The oxidation reaction was initiated at 37°C under air by the addition of 50 μl of 40 mM AAPH solution. Oxidation was carried out in the presence of 10 μl of the examined compounds (stock solution in DMSO). In the assay without antioxidant, lipid oxidation was measured in the presence of the same level of DMSO. The rate of oxidation at 37°C was monitored by recording the increase in absorption at 234 nm caused by conjugated diene hydroperoxides (Table 5). Trolox was used as a standard.
Anti-lipid peroxidation activity. The water-soluble azo compound AAPH has been extensively used as a clean and controllable source of thermally produced alkyl peroxyl free radicals, through spontaneous thermal decomposition. […] In the AAPH assay, the highly reactive alkylperoxyl radicals are intercepted mainly by a hydrogen atom transfer (HAT) from the antioxidant.

The target of another series is T1, soybean lipoxygenase (Glycine max, UniProt P08170).
T1 construct: purchased Sigma Chemical, Co. (St. Louis, MO, USA)
T1 sequence (P08170 1-839): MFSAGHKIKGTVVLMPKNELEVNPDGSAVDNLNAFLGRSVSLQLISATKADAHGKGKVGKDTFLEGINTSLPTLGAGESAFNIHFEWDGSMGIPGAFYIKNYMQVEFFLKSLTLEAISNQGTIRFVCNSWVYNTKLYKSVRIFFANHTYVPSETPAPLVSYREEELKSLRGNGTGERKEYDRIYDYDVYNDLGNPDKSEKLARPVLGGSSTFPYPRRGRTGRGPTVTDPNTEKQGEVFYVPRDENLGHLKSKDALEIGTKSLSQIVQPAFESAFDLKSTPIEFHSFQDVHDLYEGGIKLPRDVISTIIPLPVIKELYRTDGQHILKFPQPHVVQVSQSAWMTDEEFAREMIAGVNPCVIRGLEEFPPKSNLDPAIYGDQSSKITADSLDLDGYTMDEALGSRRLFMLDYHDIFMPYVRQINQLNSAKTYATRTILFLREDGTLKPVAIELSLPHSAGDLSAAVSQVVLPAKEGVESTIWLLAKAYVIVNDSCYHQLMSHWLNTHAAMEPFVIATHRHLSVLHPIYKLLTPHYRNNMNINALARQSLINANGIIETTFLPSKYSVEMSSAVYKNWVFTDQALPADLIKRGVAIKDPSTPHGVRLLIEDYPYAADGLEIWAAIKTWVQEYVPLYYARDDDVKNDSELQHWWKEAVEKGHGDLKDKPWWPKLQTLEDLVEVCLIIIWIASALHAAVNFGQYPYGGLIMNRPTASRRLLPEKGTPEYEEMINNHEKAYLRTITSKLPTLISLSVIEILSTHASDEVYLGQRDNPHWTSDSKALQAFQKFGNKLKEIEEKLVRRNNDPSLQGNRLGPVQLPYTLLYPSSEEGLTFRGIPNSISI
The series is described as follows: Soybean lipoxygenase inhibition in vitro. Format: biochemical. Particulars: for inhibition at 100 µM: read-out: %LOX @ 100μΜ; for %LOX @ 100μΜ: 100 μM compound; for IC50: read-out: LOX IC50 μΜ. Here is the method: 2.2.2.4 Soybean lipoxygenase inhibition study in vitro [14]
In vitro study was evaluated as reported previously. The tested compounds dissolved in ethanol were incubated at room temperature with sodium linoleate (0.1 mM) and 0.2 ml of enzyme solution (1/9 x10^-4 w/v in saline). […] Several concentrations were used for the determination of IC50 values (Table 5).
LO is the key enzyme in leukotriene biosynthesis. Leukotrienes derived from the biotransformation of arachidonic acid catalyzed by 5-lipoxygenase (5-LO), are important inflammatory mediators implicated in several diseases. LOs play a role in membrane lipid peroxidation by forming hydroperoxides in the lipid bilayer. […] Most of the LO inhibitors are antioxidants or free radical scavengers, since lipoxygenation occurs via a carbon-centered radical. The evaluation of the novel coumarin hybrids against soybean lipoxygenase LO was accomplished by the UV-based enzyme assay.

Series [2] can be described thus: Reducing activity of the stable radical DPPH. Particulars: 100 μM compound, after 20 min. The protocol:
2.2.2.1 Determination of the reducing activity of the stable radical 1, 1-diphenyl-picrylhydrazyl (DPPH)
To a solution of DPPH (100μM) in absolute ethanol an equal volume of the compounds dissolved in ethanol was added. As control solution ethanol was used. The concentration of the solutions of the compounds was 100μM. After 20 and 60 min at room temperature the absorbance was recorded at 517 nm (Table 5). NDGA was used as a standard.
The compounds were studied for their antioxidant activity by the use of the stable 2,2-diphenyl-1-picrylhydrazyl radical (DPPH) at concentration 0.1mM after 20 min. […] This purple colour generally disappears in the presence of an antioxidant. The reduction of absorbance is a measure of the free DPPH due to the action of the antioxidant. The antioxidant activity was expressed as the RA% (Reducing Activity). […] Within the group of derivatives 4 the presence of the morpholinyl or piperidinyl rings at position A as well as the carbonyl group at position B, hinder the interaction of the compounds to the free stable radical DPPH.
(In general: Loss of DPPH colour is used to gauge radical scavenging.)

Series [3] can be described thus: Competition of the tested compounds with DMSO for hydroxyl radicals. As to conditions: 100 μM compound, Fe3+/ascorbic acid, 30 min, 37°C. The protocol: 2.2.2.2 Competition of the tested compounds with DMSO for hydroxyl radicals
The hydroxyl radicals generated by the Fe ^3+ /ascorbic acid system, were detected according to Nash, by the determination of formaldehyde produced from the oxidation of DMSO. The reaction mixture contained EDTA (0.1 mM), Fe ^3+ (167 μM), DMSO (33 mM) in phosphate buffer (50 mM, pH 7.4), the tested compounds (concentration 0.1mM) and ascorbic acid (10 mM). After 30 min of incubation (37°C) the reaction was stopped with CCl3COOH (17% w/v) (Table 5). Trolox was used as a standard.
Superoxide (O2^-.) anion and hydroxyl radical (^.OH) are free radical species of potential importance. In the acidic conditions of ischemic brain, O2^-. is probably protonated to give HO2^-. species. Iron released from damaged brain cells is more likely to be readily available to catalyze the generation of OH radicals. Among the ROS, the hydroxyl (^•OH) free radical is possibly the most toxic, as it reacts with a number of biological important molecules. Polyunsaturated fatty acids are found in high concentrations in the CNS, and are particularly vulnerable by free radicals. Thus, we tried to test the ability of our compounds to scavenge hydroxyl radicals. […] All the derivatives of series 13 (except of 13i) present high antioxidant activity (80-100%) which is not able to be correlated with any specific structural characteristic since all contain a coumarin, a purine and an isoxazolyl moiery. […] It seems that the overall molar configuration influences the response. However, antioxidants with hydrophilic or lipophilic character are both needed to act as radical scavengers in the aqueous phase or as chain-breaking antioxidants in biological membranes.

The structures appear in SMILES notation. “And” between values parts separate entries of the source, which are not always exact repeats. Identical values can stand only once.

`Cc1cc(=O)oc2cc(OCc3cc(Cn4cnc5c(N6CCCCC6)ncnc54)no3)ccc12` came in with a melting point of 165 to 167 °C.
Still for that read-out and setting: then `O=c1ccc2ccc(OCC3=NOC(n4cnc5c(N6CCCC6)ncnc54)C3)cc2o1` (stereo not drawn), with 200 to 202 °C.
The same measure, in the same setting: then `Cc1cc(=O)oc2ccc(OC(=O)C3CC(Cn4cnc5c(N6CCCC6)ncnc54)=NO3)cc12` (stereo not drawn), with 192 to 193 °C.
Turning to `Cc1cc(=O)oc2ccc(OCC3CC(Cn4cnc5c(N6CCCCC6)ncnc54)=NO3)cc12` (stereo not drawn) [4a, 4-methyl-6-({3-[(6-piperidin-1-yl-9H-purin-9-yl)methyl]-4,5-dihydroisoxazol-5-yl}methoxy)-2H-chromen-2-one], the melting point lay in the range of 180 to 182 °C. Also, the “LP % @ 100μΜ (inhibition of lipid peroxidation)” value in series [1] worked out at 63%. Besides, the inhibition at 100 µM at soybean lipoxygenase came to 6%.
The corresponding values for `Cc1cc(=O)oc2cc(OCC3CC(Cn4cnc5c(N6CCOCC6)ncnc54)=NO3)ccc12` (stereo not drawn) [4d] are 194 to 196 °C, 21% and 44.5%.
On to `Cc1cc(=O)oc2cc(OCC3CC(Cn4cnc5c(N6CCCC6)ncnc54)=NO3)ccc12` (stereo not drawn) [4e], for which the melting point is 190 to 192 °C. Moreover, the “LP % @ 100μΜ (inhibition of lipid peroxidation)” value in series [1] is 65%. Moreover, the “%LOX @ 100μΜ” value on soybean lipoxygenase was “no”.
As for `O=c1cc(OCC2CC(Cn3cnc4c(N5CCOCC5)ncnc43)=NO2)c2ccccc2o1` (stereo not drawn) [4g], the melting point was in the range of 158 to 160 °C. Besides, in series [1], the “LP % @ 100μΜ (inhibition of lipid peroxidation)” value is on record as 16%. Also, at soybean lipoxygenase, the “%LOX @ 100μΜ” value is recorded as 10% and the inhibition at 100 µM was determined as 10%.
`Cc1cc(=O)oc2ccc(OC(=O)C3CC(Cn4cnc5c(N6CCCCC6)ncnc54)=NO3)cc12` (stereo not drawn) [4k, 4-Methyl-2-oxo-2H-chromen-6-yl 3-[(6-piperidin-1-yl-9H-purin-9-yl)methyl]-4,5-Dihydroisoxazole-5-Carboxylate] returned a melting point of 179 to 181 °C. Moreover, the “LP % @ 100μΜ (inhibition of lipid peroxidation)” value in series [1] is recorded as 57%. Moreover, the IC50 at soybean lipoxygenase came to 10 µM. Also, the “RA% @ 100μΜ (reducing activity, DPPH)” value in series [2] is 12%.
The corresponding values for `Cc1cc(=O)oc2ccc(OC(=O)C3CC(Cn4cnc5c(N6CCOCC6)ncnc54)=NO3)cc12` (stereo not drawn) [4l] are 188 to 189 °C, 37.5%, 61 µM and 12%.
For the compound `Cc1cc(=O)oc2ccc(OCC3=NOC(Cn4cnc5c(N6CCCCC6)ncnc54)C3)cc12` (stereo not drawn) [11a, 4-methyl-6-({5-[(6-piperidin-1-yl-9H-purin-9-yl)methyl]-4,5-dihydroisoxazol-3-yl}methoxy)-2H-chromen-2-one], the melting point lay in the range of 148 to 150 °C. Also, the “LP % @ 100μΜ (inhibition of lipid peroxidation)” value in series [1] came out at 44%. On soybean lipoxygenase, the “%LOX @ 100μΜ” value is given as “no”.
Regarding `O=c1ccc2ccc(OCC3=NOC(Cn4cnc5c(N6CCCCC6)ncnc54)C3)cc2o1` (stereo not drawn) [11g], the melting point was in the range of 184 to 185 °C. Besides, in series [1], the “LP % @ 100μΜ (inhibition of lipid peroxidation)” value is recorded as “no”. The “%LOX @ 100μΜ” value on soybean lipoxygenase is recorded as “no”.
In turn, `Cc1cc(=O)oc2cc(OCc3cc(Cn4cnc5c(N6CCOCC6)ncnc54)no3)ccc12` [13d] returned a melting point of 179 to 180 °C. Also, the “LP % @ 100μΜ (inhibition of lipid peroxidation)” value in series [1] is on record as “no”. For the same compound, the “%LOX @ 100μΜ” value on soybean lipoxygenase is “no”. The “RA% @ 100μΜ (reducing activity, DPPH)” value in series [2] is “no”.
Compound `O=c1ccc2ccc(OCc3cc(Cn4cnc5c(N6CCOCC6)ncnc54)no3)cc2o1` [13f] came in with a melting point of 174 to 175 °C. Further, the “LP % @ 100μΜ (inhibition of lipid peroxidation)” value in series [1] was 23%. The inhibition at 100 µM on soybean lipoxygenase turned out to be 25%. In addition, the “RA% @ 100μΜ (reducing activity, DPPH)” value in series [2] is given as “no”.
For the compound `O=c1ccc2ccc(OCc3cc(Cn4cnc5c(N6CCCC6)ncnc54)no3)cc2o1` [13g], the melting point is 176 to 178 °C. In addition, in series [1], the “LP % @ 100μΜ (inhibition of lipid peroxidation)” value is 43%. Further, at soybean lipoxygenase, the 50% inhibitory concentration (IC50) was 62.5 µM and 62 µM. Besides, in series [2], the “RA% @ 100μΜ (reducing activity, DPPH)” value was “no”.
`O=c1cc(OCc2cc(Cn3cnc4c(N5CCCCC5)ncnc43)no2)c2ccccc2o1` [13h]: the melting point lay within 161 to 163 °C. Moreover, in series [1], the “LP % @ 100μΜ (inhibition of lipid peroxidation)” value was 86%. The IC50 on soybean lipoxygenase is 55 µM. Besides, the “RA% @ 100μΜ (reducing activity, DPPH)” value in series [2] is on record as “no”.
As for `O=c1ccc2ccc(OCc3cc(Cn4cnc5c(N6CCCCC6)ncnc54)on3)cc2o1` [15a, 7-({5-[(6-piperidin-1-yl-9H-purin-9-yl)methyl]isoxazol-3-yl}methoxy)-2H-chromen-2-one], the melting point was in the range of 140 to 142 °C. Besides, at soybean lipoxygenase, the half-inhibitory concentration (IC50) stood at 55 µM. In addition, in series [2], the “RA% @ 100μΜ (reducing activity, DPPH)” value was “no”.
On to `O=c1ccc2ccc(OCc3cc(Cn4cnc5c(N6CCCC6)ncnc54)on3)cc2o1` [15c], for which the melting point fell in the range of 172 to 173 °C. Moreover, the “LP % @ 100μΜ (inhibition of lipid peroxidation)” value in series [1] stood at 43%. Moreover, on soybean lipoxygenase, the “%LOX @ 100μΜ” value turned out to be 9% and the inhibition at 100 µM is 9%. Besides, the “RA% @ 100μΜ (reducing activity, DPPH)” value in series [2] is reported as “no”.
On to `CC(Cc1ccc(O)c(O)c1)C(C)Cc1ccc(O)c(O)c1` (stereo not drawn) [NDGA, nordihydroguairetic acid, reference compound], for which, in series [2], the “RA% @ 100μΜ (reducing activity, DPPH)” value is on record as 87%.
Consider `Cc1c(C)c2c(c(C)c1O)CCC(C)(C(=O)O)O2` (stereo not drawn) [Trolox, reference compound], for which the “LP % @ 100μΜ (inhibition of lipid peroxidation)” value in series [1] stood at 76%. The “∙ΟΗ % @ 100μΜ (hydroxyl radical scavenging, percent inhibition of formaldehyde production)” value in series [3] worked out at 83%.
